Drawing on the Kinase Knowledgebase extract (Sharma et al. 2016), this text covers IC50 for 34 molecules.

Sequence of EGFR (human) (P00533 whole entry, looked up): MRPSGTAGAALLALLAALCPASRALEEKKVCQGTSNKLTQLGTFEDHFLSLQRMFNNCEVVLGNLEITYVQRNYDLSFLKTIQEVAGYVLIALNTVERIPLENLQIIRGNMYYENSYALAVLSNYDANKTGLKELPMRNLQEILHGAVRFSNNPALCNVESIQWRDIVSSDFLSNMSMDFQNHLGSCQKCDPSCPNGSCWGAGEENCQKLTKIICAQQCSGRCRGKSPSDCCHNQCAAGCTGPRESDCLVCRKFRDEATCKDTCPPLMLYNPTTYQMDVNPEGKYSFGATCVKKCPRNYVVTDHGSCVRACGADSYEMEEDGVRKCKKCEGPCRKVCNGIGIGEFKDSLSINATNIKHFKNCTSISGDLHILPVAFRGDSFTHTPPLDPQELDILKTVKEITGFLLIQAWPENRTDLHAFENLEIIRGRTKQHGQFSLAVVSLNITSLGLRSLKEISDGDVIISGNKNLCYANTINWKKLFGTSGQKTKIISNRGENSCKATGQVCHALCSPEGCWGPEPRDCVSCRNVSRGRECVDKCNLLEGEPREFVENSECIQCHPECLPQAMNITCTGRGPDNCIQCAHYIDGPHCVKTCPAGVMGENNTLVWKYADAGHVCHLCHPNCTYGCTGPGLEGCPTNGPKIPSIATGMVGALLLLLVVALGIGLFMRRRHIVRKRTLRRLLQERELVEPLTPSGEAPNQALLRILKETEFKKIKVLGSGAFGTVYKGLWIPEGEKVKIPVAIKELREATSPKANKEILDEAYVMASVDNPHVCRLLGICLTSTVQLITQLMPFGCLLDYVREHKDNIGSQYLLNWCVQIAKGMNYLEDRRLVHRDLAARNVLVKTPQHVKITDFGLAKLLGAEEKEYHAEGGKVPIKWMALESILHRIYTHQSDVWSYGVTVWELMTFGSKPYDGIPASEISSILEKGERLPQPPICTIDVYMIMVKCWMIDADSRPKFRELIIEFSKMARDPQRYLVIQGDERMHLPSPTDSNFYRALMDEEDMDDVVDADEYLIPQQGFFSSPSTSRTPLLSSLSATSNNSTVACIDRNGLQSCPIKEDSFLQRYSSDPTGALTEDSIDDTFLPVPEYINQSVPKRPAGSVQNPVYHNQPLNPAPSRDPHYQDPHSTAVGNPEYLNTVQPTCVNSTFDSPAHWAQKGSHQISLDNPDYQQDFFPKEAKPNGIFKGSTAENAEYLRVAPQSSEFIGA

One experiment concerns the target EGFR (human) (UniProt P00533).
Experiment: not given
Settings: not given
In the case of `CCN(CC)CCCNC(=O)c1[nH]c(/C=C2\C(=O)Nc3ccc(OC)cc32)cc1C`, the half-inhibitory concentration (IC50) (commonly the concentration at which inhibition is half-maximal) was over 100 µM.
Still for that read-out and setting: next, `CNS(=O)(=O)c1ccc2c(c1)/C(=C/c1[nH]cc(C(=O)NCC(=O)O)c1C)C(=O)N2`: over 100 µM; `CNS(=O)(=O)c1ccc2c(c1)/C(=C/c1[nH]cc(C(=O)O)c1C)C(=O)N2`: over 100 µM.
For the molecule `Cc1c(C(=O)NCCCN2CCOCC2)[nH]c(/C=C2\C(=O)Nc3ccc(Br)cc32)c1C(=O)c1ccccc1`, the IC50 is over 100 µM.
The molecule `CCN(CC)CCCNC(=O)c1c(C)[nH]c(/C=C2\C(=O)Nc3cccc(C(=O)Nc4ccc(OC)c(Cl)c4)c32)c1C` showed a 50% inhibitory concentration (IC50) of over 100 µM.
In the case of `CCOC(=O)CNC(=O)c1c[nH]c(/C=C2\C(=O)Nc3ccc(S(=O)(=O)NC)c(C)c32)c1C`, the concentration for half-maximal inhibition (IC50) is over 100 µM.
Molecule `COc1ccccc1-c1ccc2c(c1)NC(=O)/C2=C\c1[nH]c(C)c(C(=O)NCCN(C)C)c1-c1ccccc1` yielded a half-inhibitory concentration (IC50) of over 100 µM.
Same read-out and setting: the figure for `Cc1[nH]c(/C=C2\C(=O)Nc3ccc(Cl)cc32)c(C)c1C(=O)NCCN(C)C` is over 100 µM; for `COc1ccccc1-c1ccc2c(c1)NC(=O)/C2=C\c1[nH]c(C)c(C(=O)NCCN2CCCC2)c1-c1ccccc1` it is over 100 µM; for `CCN(CC)CCNC(=O)c1c(C(C)C)[nH]c(/C=C2\C(=O)Nc3ccc(Br)cc32)c1C(C)C` it is over 100 µM.
In turn, `Cc1[nH]c(/C=C2\C(=O)Nc3ccc(S(=O)(=O)N(C)C)cc32)c(C)c1C(=O)NCCN1CCCC1` gave an IC50 of over 100 µM.
`CCN(CC)CCCNC(=O)c1c(C)[nH]c(/C=C2\C(=O)Nc3cc(-c4ccccc4)ccc32)c1C` displayed an IC50 of over 100 µM.
Same read-out and setting: next, `CCN(CC)CCCNC(=O)c1[nH]c(/C=C2\C(=O)Nc3cc(OC)ccc32)cc1C`: over 100 µM; `Cc1[nH]c(/C=C2\C(=O)Nc3ccc(-c4ccccc4)cc32)c(C)c1C(=O)NCCCn1ccnc1`: over 100 µM; `Cc1[nH]c(/C=C2\C(=O)Nc3cc(-c4ccccc4)ccc32)c(C)c1C(=O)NCCN(C)C`: over 100 µM.
On the same count and under the same terms, next, `CCN(CC)CCNC(=O)c1c(C)[nH]c(/C=C2\C(=O)Nc3ccc(S(=O)(=O)N(C)C)cc32)c1C`: over 100 µM.
As for `CCOC(=O)CNC(=O)c1c[nH]c(/C=C2\C(=O)Nc3ccc(S(=O)(=O)NC)cc32)c1C`, the IC50 is over 100 µM.
Same read-out and setting: next, `CCN(CC)CCNC(=O)c1c(C)[nH]c(/C=C2\C(=O)Nc3cc(-c4cc(Cl)cc(Cl)c4)ccc32)c1C`: over 100 µM.

The target of a further experiment is CDK2 (human) (UniProt P24941). The experiment can be described thus: Enzyme Assay.
Settings: not given
`CCN(CC)CCCNC(=O)c1c(C)[nH]c(/C=C2\C(=O)Nc3ccc(Br)cc32)c1-c1ccccc1` showed a 50% inhibitory concentration (IC50) of over 20 µM.

The target of the next experiment is EGFR (murine) (UniProt P00533).
Sequence of EGFR (murine) (P00533 whole entry, looked up): as above
Experiment: not given
Conditions: nih3t3/c7.
Molecule `Cc1[nH]c(/C=C2\C(=O)Nc3ccc(Br)cc32)c(C)c1C(=O)NCCCn1ccnc1` registered an IC50 of over 100 µM.
With `CCN(CC)CCNC(=O)c1c(C)[nH]c(/C=C2\C(=O)Nc3cc(-c4cccnc4)ccc32)c1C`, the IC50 is over 100 µM.
Consider `CCOC(=O)c1cc(C)c(/C=C2\C(=O)Nc3ccc(Cl)cc32)[nH]1`, for which the IC50 is over 100 µM.
The same measure, in the same setting: next, `CCN(CC)CCNC(=O)c1ccc(/C=C2\C(=O)Nc3cc(-c4ccccc4)ccc32)[nH]1`: over 100 µM.
In the case of `CCOC(=O)c1c(C)[nH]c(/C=C2\C(=O)Nc3ccc(Br)cc32)c1-c1ccccc1`, the IC50 was over 100 µM.
Still for that read-out and setting: next, `Cc1[nH]c(/C=C2\C(=O)Nc3ccc(Br)cc32)c(C)c1C(=O)NCCN1CCCC1`: over 100 µM.
`Cc1cc(C(=O)O)[nH]c1/C=C1\C(=O)Nc2ccc(Cl)cc21` showed an IC50 of over 100 µM.
`COC(=O)c1cc(C)c(/C=C2\C(=O)Nc3ccccc32)[nH]1`: the 50% inhibitory concentration (IC50) was over 100 µM.
The same measure, in the same setting: next, `Cc1[nH]c(/C=C2\C(=O)Nc3cc(-c4cccnc4)ccc32)c(C)c1C(=O)NCCN1CCCC1`: over 100 µM; `Cc1[nH]c(/C=C2\C(=O)Nc3cc(-c4ccccc4)ccc32)c(C)c1C(=O)NCCN1CCCC1`: over 100 µM; `Cc1cc(C(=O)O)[nH]c1/C=C1\C(=O)Nc2ccccc21`: over 100 µM.
`Cc1[nH]c(/C=C2\C(=O)Nc3ccc(-c4ccccc4)cc32)c(C)c1C(=O)NCCCn1ccnc1` displayed a 50% inhibitory concentration (IC50) of over 100 µM.
On the same count and under the same terms, the figure for `CCN(CC)CCN(C)C(=O)c1ccc(/C=C2\C(=O)Nc3cc(-c4ccccc4)ccc32)[nH]1` is over 100 µM.
Still for that read-out and setting: next, `CCN(CC)CCNC(=O)c1c(C)[nH]c(/C=C2\C(=O)Nc3cc(-c4ccccc4)ccc32)c1C`: over 100 µM; `Cc1[nH]c(/C=C2\C(=O)Nc3cc(-c4ccccc4)ccc32)c(C)c1C(=O)NCCCn1ccnc1`: over 100 µM.
Still for that read-out and setting: next, `CCN(CC)CCNC(=O)c1c(C)[nH]c(/C=C2\C(=O)Nc3cc(-c4cc(Cl)cc(Cl)c4)ccc32)c1C`: over 100 µM; `Cc1cc(C(=O)O)[nH]c1/C=C1\C(=O)N(C)c2ccccc21`: over 100 µM.
